Assays:
[1] = Dilution test of iron compositions in sterile PBS and cell culture medium (dissolution properties); type: physicochemical; conditions: for appearance after initial ten-fold dilution: 3 mg/ml of iron, PBS and medium; for appearance after further ten-fold dilution: 300 micrograms/ml of iron
Experimental: (§1) The iron content of the compounds (with the exception of the vitamin D and the sucrosomial matrix) was 30 mg/ml. A 1:100 dilution was performed for all of the compounds in sterile PBS in order to obtain an iron concentration of 300 micrograms/ml. […] The final iron concentration used in the experiments has been described elsewhere (Barisani et al. “Iron overload and gene expression in HepG2 cells: analysis by differential display” FEBS Letters 2000, 469, 208-212). The compounds (initial dilution of […]) were diluted in an incomplete FBS-free medium (RPMI 1640 for the U937 cells, EMEM for the HepG2 cells) with a dilution factor of 1:6 for a final iron concentration of 50 micrograms/ml. A test was conducted to assess the effect of the compounds on the cell cultures: induced FlepG2 and U937 were seeded a with a cell density of 650,000 cells/ml in 6 wells (final volume 1.5 ml/well). After 24 hours the medium was replaced with a new FBS-free (incomplete) one containing 50 µg/ml of iron and after 24 hours the cells were macroscopically checked (visual inspection using a microscope).
Before the cells were treated with the selected compounds, they were tested to assess their dissolution properties. The compounds were diluted in sterile PBS and in the standard cell culture medium (EMEM).

U937 cells = conditions: 50 micrograms/ml of iron, 24 hours
Experimental: as §1

hepcidin = test: Hepcidin produced by LPS-stimulated HepG2 cells in supernatant (ELISA); type: cell-based, human; conditions: LPS-stimulated HepG2, 18 hours of treatment; combination compared to vitamin D alone or sucrosomial iron alone (FIG. 2)
Experimental: The HepG2 cells were seeded in 6 wells at a concentration of 650,000 cells/ml (1.5 ml/well). The plates were incubated for 24 hours at 37° C. and 5% CO2 first. Afterwards, the 24-hour medium was replaced with an incomplete EMEM without FEM, containing 40 ng/ml of LPS. A control well was prepared with an LPS-FBS-free incomplete medium. After 20 hours of incubation at 37° C. and 5% CO2, the medium was replaced with the iron treatment solutions (medium containing 50 µg/ml of iron). In the control well, the medium was replaced by an incomplete FBS-free EMEM medium. Another control well without iron was prepared, replacing a container containing LPS with a fresh incomplete FBS-free medium. After 6, 18 and 24 ore, the hours, the supernatants were collected from the wells, centrifugated for 10 minutes at 1000 g, transferred into a new tube and stored a −20° C. for the analysis of hepcidin and CRP. The cells of each well collected were detached using trypsin and counted using Trypan blue with a Bürker counting chamber.

Compound	appearance after initial ten-fold dilution [1]	appearance after further ten-fold dilution [1]	effect on the cytoplasmic volume of the cells (U937 cells)	appearance of the compounds before dilution in PBS / EMEM ([1]; compounds as supplied (30 mg/ml iron))	hepcidin level/expression in supernatants of HepG2 cells (hepcidin)
O=P([O-])([O-])OP(=O)([O-])[O-].O=P([O-])([O-])OP(=O)([O-])[O-].O=P([O-])([O-])OP(=O)([O-])[O-].[Fe+3].[Fe+3].[Fe+3].[Fe+3] [iron pyrophosphate]	changed the colour (pH) of the medium from red to yellow	no evident colour change			
O=S(=O)([O-])[O-].[Fe+2] [iron sulphate]	changed the colour (pH) of the medium from red to yellow	moderate colour change	loss of volume	separated in two phases	
vitamin D	no problems				higher

Source: US12246036B2, “Composition for use in the prevention and in the treatment of iron deficiency” (PHARMANUTRA S.P.A., priority 2017, dated 2025)
